According to US10508120B2, “TYK2 inhibitors and uses thereof” (Nimbus Lakshmi, Inc., priority 2017, dated 2019):
Like-named read-outs stand apart in the source and are kept apart here.

How the values were obtained:
[1] = molecular target: Tyk2/JAK2 (heterodimeric complex) (Homo sapiens (Human), UniProt P29597); assay: IL-12 Induced pSTAT4 in Human PBMC; format: cell-based; settings: 1.7 ng/mL IL-12
From the text: The IL-12 Induced pSTAT4 assay evaluates the inhibition of IL-12 induced STAT4 phophorylation mediated by Tyk2/JAK2 (heterodimeric complex).

JAK2 kinase domain (JH1) = JAK2 kinase domain (JH1) (Homo sapiens (Human), UniProt O60674); assay: JAK2 Radioactive Kinase Assay; format: biochemical; settings: read-out: JAK2 JH1% Inhibition @ 10 μM
Outline: (§1)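 Each kinase domain is incubated with test compound at 10 μM. Activity is then measured radiometrically and expressed as percent inhibition relative to uninhibited enzyme.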

[2] = molecular target: JAK2/JAK2 homdimeric complex (Homo sapiens (Human), UniProt O60674); assay: GM-CSF Induced pSTAT5 in Human PBMC; format: cell-based; settings: GM-CSF 5 ng/mL for 20 minutes, pSTAT5 by MSD, read-out: PBMC_GMCSF_pSTAT5 IC50
Tyk2 kinase domain (DH1) = Tyk2 kinase domain (DH1) (Homo sapiens (Human), UniProt P29597); assay: Tyk2 Radioactive Kinase Assay; format: biochemical; settings: read-out: Tyk2 JH1% Inhibition @ 10 μM
Outline: as §1

[3] = molecular target: human TYK2 (JH2domain-pseudokinase) (Homo sapiens (Human), UniProt P29597); assay: TYK2 JH2 Domain Binding Assay (KINOMEscan)
Outline: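 Kds, run in duplicate, came from Hill fits (slope fixed at −1) of an 11-point 3-fold dilution series starting at 30,000 nM. Bead-retained TYK2 JH2 (aa G556–D888)–NFkB DBD fusion, DNA-tagged and expressed in HEK293 cells, was read by qPCR after 1 h room-temperature binding in 0.9% DMSO.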

Chain of Tyk2 kinase domain (DH1) (P29597 897-1176): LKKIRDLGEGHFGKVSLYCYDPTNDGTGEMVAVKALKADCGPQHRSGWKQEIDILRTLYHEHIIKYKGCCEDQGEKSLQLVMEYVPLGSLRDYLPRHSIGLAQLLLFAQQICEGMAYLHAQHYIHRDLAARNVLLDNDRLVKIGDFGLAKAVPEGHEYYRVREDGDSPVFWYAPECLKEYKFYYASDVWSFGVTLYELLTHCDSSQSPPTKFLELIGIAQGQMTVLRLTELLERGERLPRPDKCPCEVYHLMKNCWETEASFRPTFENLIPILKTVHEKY
Chain of human TYK2 (JH2domain-pseudokinase) (P29597 556-888): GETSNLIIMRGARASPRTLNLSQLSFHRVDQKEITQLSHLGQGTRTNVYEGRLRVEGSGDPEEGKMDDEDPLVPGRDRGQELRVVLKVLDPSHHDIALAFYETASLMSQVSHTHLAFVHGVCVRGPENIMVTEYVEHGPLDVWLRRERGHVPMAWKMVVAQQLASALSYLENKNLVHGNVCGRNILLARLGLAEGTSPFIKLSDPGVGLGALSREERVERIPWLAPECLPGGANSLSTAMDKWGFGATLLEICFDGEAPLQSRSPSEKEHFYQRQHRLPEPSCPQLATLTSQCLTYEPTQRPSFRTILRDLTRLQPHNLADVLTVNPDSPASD
Chain of JAK2 kinase domain (JH1) (O60674 849-1124): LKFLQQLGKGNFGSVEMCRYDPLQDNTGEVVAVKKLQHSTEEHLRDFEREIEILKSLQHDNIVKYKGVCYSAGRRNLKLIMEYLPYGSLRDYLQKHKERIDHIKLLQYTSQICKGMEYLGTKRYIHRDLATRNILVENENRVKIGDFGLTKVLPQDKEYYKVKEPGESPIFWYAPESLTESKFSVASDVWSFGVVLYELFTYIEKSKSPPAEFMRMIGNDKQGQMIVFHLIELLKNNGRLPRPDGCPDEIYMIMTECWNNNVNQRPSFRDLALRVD
Chain of JAK2/JAK2 homdimeric complex (O60674 whole entry, the tested form may be a part): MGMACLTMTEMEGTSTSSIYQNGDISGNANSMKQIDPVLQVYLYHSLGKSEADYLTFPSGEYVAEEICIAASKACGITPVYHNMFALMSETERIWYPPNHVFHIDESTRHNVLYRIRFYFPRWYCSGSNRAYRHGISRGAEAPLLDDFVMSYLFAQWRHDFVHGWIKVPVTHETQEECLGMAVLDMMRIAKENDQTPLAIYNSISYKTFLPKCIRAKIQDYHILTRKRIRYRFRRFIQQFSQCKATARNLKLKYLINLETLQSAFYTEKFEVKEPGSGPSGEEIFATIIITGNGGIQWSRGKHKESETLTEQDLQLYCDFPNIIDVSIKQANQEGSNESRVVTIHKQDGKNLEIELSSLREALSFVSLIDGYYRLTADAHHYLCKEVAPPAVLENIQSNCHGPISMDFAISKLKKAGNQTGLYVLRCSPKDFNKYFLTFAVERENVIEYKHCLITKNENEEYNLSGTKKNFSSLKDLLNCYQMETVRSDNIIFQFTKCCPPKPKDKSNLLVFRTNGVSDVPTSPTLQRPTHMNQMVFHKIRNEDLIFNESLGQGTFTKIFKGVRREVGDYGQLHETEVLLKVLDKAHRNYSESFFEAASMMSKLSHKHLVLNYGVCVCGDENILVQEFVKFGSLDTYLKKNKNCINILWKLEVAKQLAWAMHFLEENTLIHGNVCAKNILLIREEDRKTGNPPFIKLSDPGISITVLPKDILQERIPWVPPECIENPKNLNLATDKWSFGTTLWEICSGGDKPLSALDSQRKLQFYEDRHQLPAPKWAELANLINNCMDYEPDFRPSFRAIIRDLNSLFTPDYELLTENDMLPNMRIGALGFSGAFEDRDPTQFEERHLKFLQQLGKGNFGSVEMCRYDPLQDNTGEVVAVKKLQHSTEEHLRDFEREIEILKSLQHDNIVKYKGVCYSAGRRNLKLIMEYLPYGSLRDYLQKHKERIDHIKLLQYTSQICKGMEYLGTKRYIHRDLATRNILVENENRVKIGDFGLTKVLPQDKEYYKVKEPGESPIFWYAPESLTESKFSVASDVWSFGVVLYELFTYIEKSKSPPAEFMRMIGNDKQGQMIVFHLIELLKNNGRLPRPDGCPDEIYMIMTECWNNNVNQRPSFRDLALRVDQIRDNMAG
Chain of JAK2/JAK2 homdimeric complex (P32927 17-897 partner): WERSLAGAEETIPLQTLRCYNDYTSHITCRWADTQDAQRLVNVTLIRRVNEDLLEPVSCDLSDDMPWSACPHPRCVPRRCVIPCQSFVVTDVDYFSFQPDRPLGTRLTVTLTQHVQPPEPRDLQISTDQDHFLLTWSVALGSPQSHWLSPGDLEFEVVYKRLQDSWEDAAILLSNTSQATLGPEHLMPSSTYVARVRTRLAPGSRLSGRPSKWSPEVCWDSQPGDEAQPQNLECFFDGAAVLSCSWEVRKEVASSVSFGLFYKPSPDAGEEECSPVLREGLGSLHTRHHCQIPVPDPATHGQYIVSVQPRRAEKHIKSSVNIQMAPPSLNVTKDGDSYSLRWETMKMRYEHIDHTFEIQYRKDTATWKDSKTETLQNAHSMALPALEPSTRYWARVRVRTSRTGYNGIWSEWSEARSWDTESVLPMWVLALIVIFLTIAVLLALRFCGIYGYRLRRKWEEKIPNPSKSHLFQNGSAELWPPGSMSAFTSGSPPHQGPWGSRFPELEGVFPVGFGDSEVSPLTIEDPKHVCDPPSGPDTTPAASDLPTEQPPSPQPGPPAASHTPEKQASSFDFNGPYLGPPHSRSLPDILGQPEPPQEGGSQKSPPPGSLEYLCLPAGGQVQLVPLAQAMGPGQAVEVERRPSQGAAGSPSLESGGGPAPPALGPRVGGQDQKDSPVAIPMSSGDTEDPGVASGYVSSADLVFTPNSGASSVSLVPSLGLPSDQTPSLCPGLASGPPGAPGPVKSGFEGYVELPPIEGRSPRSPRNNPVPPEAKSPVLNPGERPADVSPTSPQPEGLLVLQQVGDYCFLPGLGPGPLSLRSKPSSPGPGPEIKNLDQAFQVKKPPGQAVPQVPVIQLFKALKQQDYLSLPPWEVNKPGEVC
Chain of Tyk2/JAK2 (heterodimeric complex) (P29597 whole entry, other chains not shown): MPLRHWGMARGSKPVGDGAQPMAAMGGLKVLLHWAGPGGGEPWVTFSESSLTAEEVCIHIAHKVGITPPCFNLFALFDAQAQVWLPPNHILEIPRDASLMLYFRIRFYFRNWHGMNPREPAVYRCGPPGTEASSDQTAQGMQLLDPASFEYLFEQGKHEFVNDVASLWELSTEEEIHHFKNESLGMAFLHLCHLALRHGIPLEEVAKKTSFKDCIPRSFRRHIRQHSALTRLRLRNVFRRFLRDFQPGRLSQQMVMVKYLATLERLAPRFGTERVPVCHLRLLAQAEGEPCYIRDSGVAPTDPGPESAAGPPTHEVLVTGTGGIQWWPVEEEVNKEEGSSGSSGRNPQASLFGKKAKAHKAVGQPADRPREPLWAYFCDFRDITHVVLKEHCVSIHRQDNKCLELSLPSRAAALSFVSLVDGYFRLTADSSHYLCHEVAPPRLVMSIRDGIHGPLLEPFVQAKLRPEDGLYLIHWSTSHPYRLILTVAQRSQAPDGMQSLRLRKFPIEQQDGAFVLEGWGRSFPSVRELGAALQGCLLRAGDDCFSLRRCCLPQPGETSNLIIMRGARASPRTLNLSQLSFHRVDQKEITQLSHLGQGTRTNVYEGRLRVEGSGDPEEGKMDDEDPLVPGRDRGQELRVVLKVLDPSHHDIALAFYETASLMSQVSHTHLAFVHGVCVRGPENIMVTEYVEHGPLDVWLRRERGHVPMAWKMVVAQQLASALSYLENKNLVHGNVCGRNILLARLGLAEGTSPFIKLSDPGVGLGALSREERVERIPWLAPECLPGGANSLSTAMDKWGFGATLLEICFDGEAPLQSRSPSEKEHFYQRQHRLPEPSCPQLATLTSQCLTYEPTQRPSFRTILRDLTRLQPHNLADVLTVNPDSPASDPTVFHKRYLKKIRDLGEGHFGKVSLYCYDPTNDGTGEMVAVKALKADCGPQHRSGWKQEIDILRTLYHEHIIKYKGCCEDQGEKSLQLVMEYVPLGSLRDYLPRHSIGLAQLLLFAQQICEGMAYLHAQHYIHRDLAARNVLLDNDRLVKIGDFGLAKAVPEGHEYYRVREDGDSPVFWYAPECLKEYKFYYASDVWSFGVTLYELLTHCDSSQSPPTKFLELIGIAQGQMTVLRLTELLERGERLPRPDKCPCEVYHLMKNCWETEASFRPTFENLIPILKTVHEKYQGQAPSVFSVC

Compound	IC50 [1] [µM]	inhibition at 10 µM (JAK2 kinase domain (JH1); compound at 10 μM, ATP 10 μM) [%]	IC50 [2] [µM]	inhibition at 10 µM (Tyk2 kinase domain (DH1); compound at 10 μM, ATP 10 μM) [%]	Kd [3] [µM]	inhibition at 10 µM (JAK2 kinase domain (JH1); 10 μM compound, 10 μM ATP) [%]	inhibition at 10 µM (Tyk2 kinase domain (DH1); 10 μM compound, 10 μM ATP) [%]
CNc1cc(-c2c[nH]c3c(C)cc(C)cc23)nc2c(C(N)=O)cnn12 [I-36, 5-(5,7-dimethyl-1H-indol-3-yl)-7-(methylamino)pyrazolo[1,5-a]pyrimidine-3-carboamide]	< 0.1	< 50	> 12.5	< 50	< 0.0002		
CNc1cc(Nc2cccnc2OC(C)C)nc2c(C(N)=O)cnn12 [I-72]	0.1 to 0.5	< 50	> 12.5	< 50	< 0.0002		
CNc1cc(Nc2cccn(-c3ccccn3)c2=O)nc2c(C(=O)NC3CC3)cnn12 [I-680]	< 0.1	< 50	> 12.5	< 50	< 0.0002		
[2H]C([2H])([2H])Oc1ncccc1Nc1cc(NC)n2ncc(C(=O)NCC(C)(C)CO)c2n1 [I-347]	< 0.1	< 50	> 50	< 50	< 0.0002		
CNc1cc(Nc2cc(Cl)cn(-c3ccc(C4CC4)nn3)c2=O)nc2c(C(=O)NC3CC3)cnn12 [I-333]	< 0.1	< 50	> 12.5	< 50	< 0.0002		
CNc1cc(Nc2cc(F)cnc2OCCOC)nc2c(C(=O)NC3CCC3)cnn12 [I-290]	< 0.1	< 50	> 2.5	< 50	0.0002 to 0.001		
CNc1cc(Nc2cccn(-c3ncco3)c2=O)nc2c(C(=O)NC3CC3)cnn12 [I-715]	< 0.1	< 50	> 2.5	< 50	< 0.0002		
CNc1cc(Nc2cccn(-c3ncc(C)s3)c2=O)nc2c(C(=O)N[C@H]3CC[C@@H]3O)cnn12 (stereo in doubt) [I-676, N-(2-hydroxycyclobutyl)-7-(methylamino)-5-((1-(5-methylthiazol-2-yl)-2-oxo-1,2-dihydropyridin-3-yl)amino)pyrazolo[1,5-a]pyrimidine-3-carboxamide]	< 0.1	< 50	> 2.5	< 50	< 0.0002		
CNc1cc(Nc2cccc(-c3cnn(C)c3)c2Cl)nc2c(C(N)=O)cnn12 [I-17]	< 0.1	< 50	> 2.5	70 to 90	< 0.0002		
CNc1cc(Nc2cc(Cl)cn(C3CCCOC3)c2=O)nc2c(C(=O)NC3CC3)cnn12 (stereo not shown) [I-711]	< 0.1	< 50	> 50	< 50	< 0.0002		
CNc1cc(Nc2cc(C)cc(F)c2)nc2c(C(=O)NC3CC3)cnn12 [I-6]	< 0.1	< 50	> 50	< 50	< 0.0002		
CNc1cc(Nc2cccn(-c3cnc(C(C)(C)O)cn3)c2=O)nc2c(C(=O)NC3CCC3)cnn12 [I-95]	< 0.1	< 50	> 50	< 50	< 0.0002		
CNc1cc(Nc2cccn(-c3nc(C)co3)c2=O)nc2c(C(=O)NC3CC3)cnn12 [I-368]	< 0.1	< 50	> 12.5	< 50	< 0.0002		

Second part, the molecule after the results:

IC50 [1] [µM]	inhibition at 10 µM (JAK2 kinase domain (JH1); compound at 10 μM, ATP 10 μM) [%]	IC50 [2] [µM]	inhibition at 10 µM (Tyk2 kinase domain (DH1); compound at 10 μM, ATP 10 μM) [%]	Kd [3] [µM]	inhibition at 10 µM (JAK2 kinase domain (JH1); 10 μM compound, 10 μM ATP) [%]	inhibition at 10 µM (Tyk2 kinase domain (DH1); 10 μM compound, 10 μM ATP) [%]	Compound
< 0.1	< 50	> 50	< 50	< 0.0002			CNc1cc(Nc2cccnc2OC)nc2c(C(=O)N[C@H]3CC[C@H]3O)cnn12 [I-429]
< 0.1	< 50	> 50	< 50	< 0.0002			CNc1cc(Nc2cccn(-c3nc(C)co3)c2=O)nc2c(C(=O)N[C@H]3C[C@H]3F)cnn12 [I-369]
< 0.1	< 50	> 12.5	< 50	< 0.0002			CNc1cc(-c2cn(CCN3CCCCC3)c3ncccc23)nc2c(C(=O)N[C@H]3C[C@H]3F)cnn12 [I-585]
< 0.1	< 50	> 12.5	< 50	< 0.0002			CNc1cc(-c2cn(C(C)C)c3ncccc23)nc2c(C(=O)NC3CC3)cnn12 [I-223]
< 0.1	< 50	> 50	< 50	< 0.0002			CNc1cc(-c2cn(C(C)C)c3ncccc23)nc2c(C(=O)N[C@H]3CC[C@@H]3O)cnn12 [I-586, N-((1R,2R)-2-hydroycyclobutyl)-5-(1-isopropyl-1H-pyrrolo[2,3-b]pyridin-3-yl)-7-(methylamino)pyrazolo[1,5-a]pyrimidine-3-carboxamide]
< 0.1		> 50		< 0.0002	< 50	< 50	CNC(=O)c1occc1Nc1cc(NC)n2ncc(C(=O)N[C@@H]3C[C@@H]3F)c2n1 [I-888, N-((1R,2S)-2-fluorocyclopropyl)-7-(methylamino)-5-((2-(methylcarbamoyl)furan-3-yl)amino)pyrazolo[1,5-a]pyrimidine-3-carboxamide]
< 0.1	< 50	> 12.5	< 50	< 0.0002			CNc1cc(Nc2cccc([C@H]3CCCOC3)n2)nc2c(C(=O)N[C@@H]3CC[C@H]3O)cnn12 [I-667]
< 0.1	50 to 70	> 2.5	50 to 70	< 0.0002			CNc1cc(Nc2cccc([C@@H]3CCCOC3)n2)nc2c(C(=O)N[C@H]3CC[C@@H]3O)cnn12 [I-603]
< 0.1		> 50		< 0.0002	< 50	< 50	CNc1cc(Nc2cc(Cl)cn([C@H]3CCCN(C)C3)c2=O)nc2c(C(=O)N[C@@H]3C[C@@H]3F)cnn12 [I-854]
< 0.1	< 50	> 12.5	< 50	< 0.0002			CNc1cc(Nc2cc(Cl)cn(-c3cnn(C)c3)c2=O)nc2c(C(=O)N[C@H]3C[C@H]3F)cnn12 [I-312]
< 0.1	50 to 70	> 50	< 50	< 0.0002			CNc1cc(Nc2cccnc2OC)nc2c(C(=O)N[C@@H]3CC[C@H]3O)cnn12 (stereo in doubt) [I-363, N-((1R,2R)-2-hydroxycyclobutyl)-5-((2-methoxypyridin-3-yl)amino)-7-(methylamino)pyrazolo[1,5-a]pyrimidine-3-carboxamide]
< 0.1	< 50	> 50	< 50	< 0.0002			CNc1cc(Nc2cccnc2OC)nc2c(C(=O)N[C@H]3C[C@@H]3O)cnn12 [I-438, N-((1S,2S)-2-hydroxycyclopropyl)-5-((2-methoxypyridin-3-yl)amino)-7-(methylamino)pyrazolo[1,5-a]pyrimidine-3-carboxamide]
< 0.1	< 50	> 2.5	< 50	< 0.0002			CNc1cc(Nc2cccc(N3CCOC3=O)n2)nc2c(C(=O)N[C@H]3C[C@H]3F)cnn12 [I-236]
